Assay results as given in paper PMC9024338, “Bruceine H Mediates EGFR-TKI Drug Persistence in NSCLC by Notch3-Dependent β-Catenin Activating FOXO3a Signaling” (Frontiers in Oncology, 2022).
“And” between values parts separate entries of the source, which are not always exact repeats. Equal values may be shown once. Read-outs that look alike come from different tables or passages of the source.

Experiments:
A549 cells = assay: Apoptosis by flow cytometry (Annexin V-FITC/PI), A549; format: cell-based, human; conditions: A549, 48 h, various concentrations, relative to control
Procedure: After being digested with trypsin without EDTA, the cells were washed gently with culture medium and twice with cold PBS. The pellet was resuspended in 400 μl of 1× binding buffer, the resuspended cells were transferred to flow tubes, then Annexin V-FITC (5 μl) and propidium iodide (10 μl) were added, and the mixture was incubated for 15 min at room temperature in the dark. The percentage of apoptotic cells was determined by flow cytometry (Backman, CA, USA) and FlowJo V10 software.

16HBE cells = assay: Toxicity to normal human cell line 16HBE (Figure S1); format: cell-based
Procedure: (§1) Figure S1. The toxicity of Bruceine H (BH) and Bruceine D (BD) to 16HBE (A) and LO2 (B) cells was evaluated.

LO2 cells = assay: Toxicity to normal human cell line LO2 (Figure S1); format: cell-based
Procedure: as §1

[1] = Preliminary pharmacokinetics in SD rats; format: in vivo; conditions: for AUC(0-inf) / AUC(0-t) / clearance / half-life / Cmax / Vd / concentration at 5 min / concentration at 10 min / concentration at 0.25 h / concentration at 0.5 h / concentration at 0.75 h / concentration at 1 h / concentration at 2 h / concentration at 4 h / concentration at 6 h / concentration at 8 h / concentration at 12 h / concentration at 24 h / MRT inf / k el: male, SD, rat, plasma; for Cmax: read-out: Maximum concentration (C max)
Procedure: We administered BH by gavage and intravenous administration to SD rats (male, 200–220 g, n = 6) after they had fasted for 12 h. For oral gavage, the BH was dissolved in DMSO/0.5% CMC-Na (5/95, v/v/), and for intravenous administration, it was dissolved in DMSO/0.9% NaCl (5/95, v/v/), and then the blood samples were collected at intervals to determine the pharmacokinetic (PK) profiles of SD rats.

SMILES: CC1=CC(=O)[C@@H](O)[C@]2(C)[C@H]3[C@@H](O)[C@H](O)[C@@]4(CO)OC[C@@]35[C@@H](C[C@@H]12)OC(=O)[C@H](O)[C@]54O [BH, Bruceine H]
- early apoptosis rate (A549 cells): increased
- toxicity to 16HBE cells (16HBE cells): no apparent toxicity
- toxicity to LO2 cells (LO2 cells): no apparent toxicity
- Concentration of BH in rat plasma, individual rats No1-No3 ([1]; i.v. 2 mg/kg, 5 min, 2 mg/kg): 484.6 ng/mL and 469.6 ng/mL
- Concentration of BH in rat plasma, individual rats No1-No3 ([1]; i.v. 2 mg/kg, 10 min, 2 mg/kg): 455.4 ng/mL and 450.6 ng/mL
- Concentration of BH in rat plasma, individual rats No1-No3 ([1]; i.v. 2 mg/kg, 0.25 h, 2 mg/kg): 398.5 ng/mL and 384.2 ng/mL
- Concentration of BH in rat plasma, individual rats No1-No3 ([1]; i.v. 2 mg/kg, 0.5 h, 2 mg/kg): 245.3 ng/mL and 234.1 ng/mL
- Concentration of BH in rat plasma, individual rats No1-No3 ([1]; i.v. 2 mg/kg, 0.75 h, 2 mg/kg): 177.7 ng/mL and 180.4 ng/mL
- Concentration of BH in rat plasma, individual rats No1-No3 ([1]; i.v. 2 mg/kg, 1 h, 2 mg/kg): 135.4 ng/mL and 119.6 ng/mL
- Concentration of BH in rat plasma, individual rats No1-No3 ([1]; i.v. 2 mg/kg, 2 h, 2 mg/kg): 95.3 ng/mL and 98.5 ng/mL
- Concentration of BH in rat plasma, individual rats No1-No3 ([1]; i.v. 2 mg/kg, 4 h, 2 mg/kg): 55.4 ng/mL and 51.2 ng/mL
- Concentration of BH in rat plasma, individual rats No1-No3 ([1]; i.v. 2 mg/kg, 6 h, 2 mg/kg): 40.4 ng/mL and 42.1 ng/mL
- Concentration of BH in rat plasma, individual rats No1-No3 ([1]; i.v. 2 mg/kg, 8 h, 2 mg/kg): 18.8 ng/mL and 25.4 ng/mL
- Concentration of BH in rat plasma, individual rats No1-No3 ([1]; i.v. 2 mg/kg, 12 h, 2 mg/kg): 12.3 ng/mL and 21.3 ng/mL
- Concentration of BH in rat plasma, individual rats No1-No3 ([1]; i.v. 2 mg/kg, 24 h, 2 mg/kg): 6.3 ng/mL and 10.2 ng/mL
- AUC(0-inf) ([1]; iv, 2 mg/kg, SD rats, 2 mg/kg iv, read-out: AUC0–inf): 1050 ng·h/mL
- AUC(0-t) ([1]; iv, 2 mg/kg, SD rats, 2 mg/kg iv, read-out: AUC0–last): 944 ng·h/mL
- clearance ([1]; iv, 2 mg/kg, SD rats, 2 mg/kg iv, read-out: Clearance (CL) (converted)): 31.9 mL/min/kg
- half-life ([1]; iv, 2 mg/kg, SD rats, 2 mg/kg iv, read-out: Half-life (T 1/2) (converted)): 9.69 h
- Cmax ([1]; iv, 2 mg/kg, SD rats, 2 mg/kg iv): 477 ng/mL
- Vd ([1]; iv, 2 mg/kg, SD rats, 2 mg/kg iv, read-out: Volume of distribution (V ss)): 26.5 L/kg
- concentration at 5 min ([1]; iv, 2 mg/kg, i.v. 2 mg/kg, 5 min, read-out: Concentration of BH in rat plasma, Mean): 477 ng/mL
- concentration at 5 min ([1]; iv, 2 mg/kg, i.v. 2 mg/kg, 5 min, read-out: Concentration of BH in rat plasma, individual rats No1-No3): 478 ng/mL
- concentration at 10 min ([1]; iv, 2 mg/kg, i.v. 2 mg/kg, 10 min, read-out: Concentration of BH in rat plasma, Mean): 442 ng/mL
- concentration at 10 min ([1]; iv, 2 mg/kg, i.v. 2 mg/kg, 10 min, read-out: Concentration of BH in rat plasma, individual rats No1-No3): 420 ng/mL
- concentration at 0.25 h ([1]; iv, 2 mg/kg, i.v. 2 mg/kg, 0.25 h, read-out: Concentration of BH in rat plasma, Mean): 384 ng/mL
- concentration at 0.25 h ([1]; iv, 2 mg/kg, i.v. 2 mg/kg, 0.25 h, read-out: Concentration of BH in rat plasma, individual rats No1-No3): 371 ng/mL
- concentration at 0.5 h ([1]; iv, 2 mg/kg, i.v. 2 mg/kg, 0.5 h, read-out: Concentration of BH in rat plasma, Mean): 236 ng/mL
- concentration at 0.5 h ([1]; iv, 2 mg/kg, i.v. 2 mg/kg, 0.5 h, read-out: Concentration of BH in rat plasma, individual rats No1-No3): 228 ng/mL
- concentration at 0.75 h ([1]; iv, 2 mg/kg, i.v. 2 mg/kg, 0.75 h, read-out: Concentration of BH in rat plasma, Mean): 177 ng/mL
- concentration at 0.75 h ([1]; iv, 2 mg/kg, i.v. 2 mg/kg, 0.75 h, read-out: Concentration of BH in rat plasma, individual rats No1-No3): 172 ng/mL
- concentration at 1 h ([1]; iv, 2 mg/kg, i.v. 2 mg/kg, 1 h, read-out: Concentration of BH in rat plasma, Mean): 127 ng/mL
- concentration at 1 h ([1]; iv, 2 mg/kg, i.v. 2 mg/kg, 1 h, read-out: Concentration of BH in rat plasma, individual rats No1-No3): 125 ng/mL
- concentration at 2 h ([1]; iv, 2 mg/kg, i.v. 2 mg/kg, 2 h, read-out: Concentration of BH in rat plasma, Mean): 99.1 ng/mL
- concentration at 2 h ([1]; iv, 2 mg/kg, i.v. 2 mg/kg, 2 h, read-out: Concentration of BH in rat plasma, individual rats No1-No3): 104 ng/mL
- concentration at 4 h ([1]; iv, 2 mg/kg, i.v. 2 mg/kg, 4 h, read-out: Concentration of BH in rat plasma, Mean): 54.9 ng/mL
- concentration at 4 h ([1]; iv, 2 mg/kg, i.v. 2 mg/kg, 4 h, read-out: Concentration of BH in rat plasma, individual rats No1-No3): 58 ng/mL
- concentration at 6 h ([1]; iv, 2 mg/kg, i.v. 2 mg/kg, 6 h, read-out: Concentration of BH in rat plasma, Mean): 40 ng/mL
- concentration at 6 h ([1]; iv, 2 mg/kg, i.v. 2 mg/kg, 6 h, read-out: Concentration of BH in rat plasma, individual rats No1-No3): 37.6 ng/mL
- concentration at 8 h ([1]; iv, 2 mg/kg, i.v. 2 mg/kg, 8 h, read-out: Concentration of BH in rat plasma, Mean): 24.5 ng/mL
- concentration at 8 h ([1]; iv, 2 mg/kg, i.v. 2 mg/kg, 8 h, read-out: Concentration of BH in rat plasma, individual rats No1-No3): 29.2 ng/mL
- concentration at 12 h ([1]; iv, 2 mg/kg, i.v. 2 mg/kg, 12 h, read-out: Concentration of BH in rat plasma, Mean): 17.9 ng/mL
- concentration at 12 h ([1]; iv, 2 mg/kg, i.v. 2 mg/kg, 12 h, read-out: Concentration of BH in rat plasma, individual rats No1-No3): 20 ng/mL
- concentration at 24 h ([1]; iv, 2 mg/kg, i.v. 2 mg/kg, 24 h, read-out: Concentration of BH in rat plasma, Mean): 7.37 ng/mL
- concentration at 24 h ([1]; iv, 2 mg/kg, i.v. 2 mg/kg, 24 h, read-out: Concentration of BH in rat plasma, individual rats No1-No3): 5.6 ng/mL
- AUC(0-t) ([1]; iv, 2 mg/kg, i.v., read-out: AUC (0-t), Mean): 944 ng·h/mL
- AUC(0-t) ([1]; iv, 2 mg/kg, i.v., read-out: AUC (0-t), individual rats No1-No3): 965 ng·h/mL
- AUC(0-inf) ([1]; iv, 2 mg/kg, i.v., read-out: AUC (0-∞), individual rats No1-No3): 1020 ng·h/mL
- clearance ([1]; iv, 2 mg/kg, i.v., read-out: CLz, Mean (converted)): 31.9 mL/min/kg
- clearance ([1]; iv, 2 mg/kg, i.v., read-out: CLz, individual rats No1-No3 (converted)): 32.7 mL/min/kg
- concentration at 24 h ([1]; iv, 2 mg/kg, i.v., read-out: C_last, Mean): 7.35 ng/mL
- concentration at 24 h ([1]; iv, 2 mg/kg, i.v., read-out: C_last, individual rats No1-No3): 5.6 ng/mL
- MRT inf ([1]; iv, 2 mg/kg, i.v., read-out: MRT (0-∞), Mean): 8.44 h
- MRT inf ([1]; iv, 2 mg/kg, i.v., read-out: MRT (0-∞), individual rats No1-No3): 6.47 h
- Vd ([1]; iv, 2 mg/kg, i.v., read-out: Vz, Mean): 26.5 L/kg
- Vd ([1]; iv, 2 mg/kg, i.v., read-out: Vz, individual rats No1-No3): 18.6 L/kg
- half-life ([1]; iv, 2 mg/kg, i.v., read-out: t1/2z, Mean (converted)): 9.69 h
- half-life ([1]; iv, 2 mg/kg, i.v., read-out: t1/2z, individual rats No1-No3 (converted)): 6.55 h
- k el ([1]; iv, 2 mg/kg, i.v., read-out: λz, Mean (converted)): 2.11e-05 s⁻¹
- k el ([1]; iv, 2 mg/kg, i.v., read-out: λz, individual rats No1-No3 (converted)): 2.94e-05 s⁻¹
- AUC(0-inf) ([1]; po, 10 mg/kg, SD rats, 10 mg/kg po, read-out: AUC0–inf): 976 ng·h/mL
- AUC(0-t) ([1]; po, 10 mg/kg, SD rats, 10 mg/kg po, read-out: AUC0–last): 961 ng·h/mL
- half-life ([1]; po, 10 mg/kg, SD rats, 10 mg/kg po, read-out: Half-life (T 1/2) (converted)): 3.35 h
- Cmax ([1]; po, 10 mg/kg, SD rats, 10 mg/kg po): 147 ng/mL
- concentration at 0.25 h ([1]; po, 10 mg/kg, p.o. 10 mg/kg, 0.25 h, read-out: Concentration of BH in rat plasma, Mean): 11.8 ng/mL
- concentration at 0.25 h ([1]; po, 10 mg/kg, p.o. 10 mg/kg, 0.25 h, read-out: Concentration of BH in rat plasma, individual rats No1-No3): 13.6 ng/mL
- concentration at 0.5 h ([1]; po, 10 mg/kg, p.o. 10 mg/kg, 0.5 h, read-out: Concentration of BH in rat plasma, Mean): 58.1 ng/mL
- concentration at 0.5 h ([1]; po, 10 mg/kg, p.o. 10 mg/kg, 0.5 h, read-out: Concentration of BH in rat plasma, individual rats No1-No3): 68.4 ng/mL
- concentration at 0.75 h ([1]; po, 10 mg/kg, p.o. 10 mg/kg, 0.75 h, read-out: Concentration of BH in rat plasma, Mean): 104 ng/mL
- concentration at 0.75 h ([1]; po, 10 mg/kg, p.o. 10 mg/kg, 0.75 h, read-out: Concentration of BH in rat plasma, individual rats No1-No3): 111 ng/mL
- concentration at 1 h ([1]; po, 10 mg/kg, p.o. 10 mg/kg, 1 h, read-out: Concentration of BH in rat plasma, Mean): 147 ng/mL
- concentration at 1 h ([1]; po, 10 mg/kg, p.o. 10 mg/kg, 1 h, read-out: Concentration of BH in rat plasma, individual rats No1-No3): 154 ng/mL
- concentration at 2 h ([1]; po, 10 mg/kg, p.o. 10 mg/kg, 2 h, read-out: Concentration of BH in rat plasma, Mean): 123 ng/mL
- concentration at 2 h ([1]; po, 10 mg/kg, p.o. 10 mg/kg, 2 h, read-out: Concentration of BH in rat plasma, individual rats No1-No3): 130 ng/mL
- concentration at 4 h ([1]; po, 10 mg/kg, p.o. 10 mg/kg, 4 h, read-out: Concentration of BH in rat plasma, Mean): 101 ng/mL
